Test results reported in the supplement of paper PMC10307832.

Columns and labels:
Experiment in all cases: relative viability (nuclei count vs DMSO), 5 days (fraction); higher = more cells survive
[1] = compound: COC1=CC=C(C=C1)CN2C=CC3=C2C=C(C=C3)C(=O)NO + COc1cc2c(Oc3ccc(NC(=O)C4(C(=O)Nc5ccc(F)cc5)CC4)cc3F)ccnc2cc1OCCCN1CCOCC1 [Foretinib] (partner 0.25 µM)
Method in brief: (§1)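 For relative viability, nuclei counts in treated wells were divided by those in vehicle wells. Lung cancer cell lines had been pin-tool dosed in 1536-well plates the day after seeding and cultured for 5 days, then fixed and stained in one step (final 0.05% Triton X-100, 1% formaldehyde, 1 ug/ml Hoechst) and imaged at 4×. Doses were one drug alone or a fixed anchor-drug dose plus five library-drug doses (not always all listed) in √10 steps, and values are duplicate-plate medians.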

[2] = compound: COC1=CC=C(C=C1)CN2C=CC3=C2C=C(C=C3)C(=O)NO + O=C(CCCCCCC(=O)Nc1ccccc1)NO [Vorinostat] (partner 1 µM)
Method in brief: as §1

Veliparib + Trametinib = compound: C[C@]1(c2nc3c(C(N)=O)cccc3[nH]2)CCCN1 [Veliparib] + CC(=O)Nc1cccc(-n2c(=O)n(C3CC3)c(=O)c3c(Nc4ccc(I)cc4F)n(C)c(=O)c(C)c32)c1 [Trametinib] (partner 0.02 µM)
Method in brief: as §1

Veliparib + Navitoclax = compound: C[C@]1(c2nc3c(C(N)=O)cccc3[nH]2)CCCN1 [Veliparib] + CC1(C)CCC(c2ccc(Cl)cc2)=C(CN2CCN(c3ccc(C(=O)NS(=O)(=O)c4ccc(N[C@H](CCN5CCOCC5)CSc5ccccc5)c(S(=O)(=O)C(F)(F)F)c4)cc3)CC2)C1 [Navitoclax] (partner 0.5 µM)
Method in brief: as §1

Cell Line	relative viability ([1]; first compound 0.08 µM)	relative viability ([1]; first compound 0.253 µM)	relative viability ([1]; first compound 0.8 µM)	relative viability ([1]; first compound 2.53 µM)	relative viability ([1]; first compound 8 µM)	relative viability ([2]; first compound 0.08 µM)	relative viability ([2]; first compound 0.8 µM)	relative viability ([2]; first compound 2.53 µM)	relative viability ([2]; first compound 8 µM)	relative viability (Veliparib + Trametinib; first compound 0.02 µM)	relative viability (Veliparib + Trametinib; first compound 0.2 µM)	relative viability (Veliparib + Trametinib; first compound 0.6325 µM)	relative viability (Veliparib + Trametinib; first compound 2 µM)	relative viability (Veliparib + Navitoclax; first compound 0.02 µM)	relative viability (Veliparib + Navitoclax; first compound 0.06325 µM)	relative viability (Veliparib + Navitoclax; first compound 0.2 µM)	relative viability (Veliparib + Navitoclax; first compound 0.6325 µM)	relative viability (Veliparib + Navitoclax; first compound 2 µM)	relative viability ([2]; first compound 0.253 µM)	relative viability (Veliparib + Trametinib; first compound 0.06325 µM)
PC-3 [JPC-3]	1	1.04	1.09	1.08	0.962	0.786	0.668	0.756	0.587	0.596	0.749	0.685	0.682	0.742	0.77	0.801	0.749	0.734		
PC-14	0.701	0.917	0.991	1.04	0.996	0.21	0.725	0.733	0.782		0.699	0.686	0.834	0.991	1.05	0.937	0.895	0.898	0.667	0.664
RERF-LC-KJ	0.639	0.862	0.915	0.947	0.917	0.624	0.66	0.758	0.632	0.938	0.899	0.845	0.858	1.05		1	0.852	0.754	0.672	0.822
SK-LU-1	0.756	0.766	0.799	0.86	0.74	0.527	0.771	0.718	0.691	0.561	0.607	0.524	0.415	0.985	1.05	0.959	0.804	0.793	0.753	0.519
SK-MES-1	1.17	0.929	0.927	0.98	0.927	1.04	1.04	1.08	1.05	0.531	0.525	0.53	0.627	1.27	1.16	1.3	1.06	1.26	1.14	0.54
UMC-11		1.21	1.02	1.05	1	0.149	0.428	0.375	0.506	0.7	0.707	0.682	0.635	0.345	0.312	0.369	0.324	0.331	0.467	0.759
